Experimental data: patent US20240216250A1, “COSMETIC PEPTIDES FOR IMPROVING SKIN REJUVENATION” (Lean Life Sciences, Inc., priority 2021, published 2024)
Ends that are not written are not given here.

Experiments:
3T3-L1 fibroblast = assay: Collagen and fibronectin production in 3T3-L1 fibroblast by ELISA, with cell number; type: cell-based, mouse; details: across treatment groups
Source text: Effects of […] (SEQ ID NO: 5) on collagen and fibronectin production are validated in mouse fibroblast. A mouse fibroblast cell line is purchased from American Type Culture Collection (ATCC) to be used in all in vitro studies (3T3-L1 CL-173). The cells are first thawed into two T75 flasks per 1 million cell vial in basal medium I (BMI), which is composed of DMEM (4.5 g/l glucose) supplemented with 10% FBS and 1% Penicillin Streptomycin (P/S). The media is changed the following day, and on day 3, the cells are seeded in 96-well plates (200 μl/well). The peptide was administered to 3T3-L1 fibroblast in five varying concentrations. Collagen and fibronectin produced from the cell was assessed in the cell culture media 3 days after the peptide treatment by ELISA.

3T3-L1 cells = assay: Fructose, glucose and sucrose concentration in adipocytes (3T3-L1 cell lysates, Fructose Assay Kit); type: cell-based, mouse; details: Examples 1-2 to 1-11, same manner as Example 1-1
Description: Fructose concentration in 3T3-L1 cell lysates was measured using the Fructose Assay Kit (Abcam, Cambridge, UK). Six-well plates were seeded with 5×10^5 3T3-L1 cells/well one day before treating with 150 μM peptide. After 48 hours of treatment, the cells were harvested and fructose concentrations were assayed according to the manufacturer's instruction.
In order to confirm the effect of peptides on reducing the fructose level in adipocytes, three groups of adipocytes were prepared. Among the three groups, one group was treated with GGR, and another group was treated with RAK. The remaining group was not treated with any peptides and used as a control group. […] Fructose—an intermediate metabolite of glucose—was measured to further probe glucose metabolism. 3T3-L1 cells treated with either peptide had lower fructose concentrations than untreated cells (FIG. 1).
An additional group of adipocytes are treated with one of KGGRAKD, KGG, GGR, GRA, RAK, AKD, DKA, KAR, ARG, RGG, GGK, and DKARGGK in the same manner as Example 1-1.

prohibitin = molecular target: T1, prohibitin (Mus musculus, UniProt P67778); assay: ATS/prohibitin binding by ATS magnetic beads, immunoprecipitation and western blot; details: fractionated proteins from adipocytes captured on ATS magnetic beads, western blotting (A of FIG. 2)
T1 construct: Fractionated proteins isolated from adipocytes were incubated with the ATS magnetic beads; endogenous in cells; probably 3T3-L1
T1 sequence (P67778 2-272 limits assumed): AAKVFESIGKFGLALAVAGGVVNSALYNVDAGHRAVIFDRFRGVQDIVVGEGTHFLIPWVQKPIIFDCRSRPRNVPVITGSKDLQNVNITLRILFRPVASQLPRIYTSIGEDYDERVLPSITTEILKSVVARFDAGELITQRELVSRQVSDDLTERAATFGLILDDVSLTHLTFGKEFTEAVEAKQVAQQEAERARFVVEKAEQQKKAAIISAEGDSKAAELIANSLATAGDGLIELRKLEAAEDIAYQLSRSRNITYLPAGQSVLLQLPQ
Source text: FIG. 2: ATS/prohibitin binding determined by immunoprecipitation and western blot (A of FIG. 2). Location and degree of prohibitin expression in pre- or mature adipocytes. PM, plasma membrane; Cyt, Cytoplasm (B of FIG. 2). Confocal micrographs showing the location of prohibitin in mature- or pre-adipocytes (C of FIG. 2).
It was confirmed that prohibitin shifts its location to the cell membrane as adipogenesis progresses and ATS binds to prohibition. The ATS/prohibitin binding was verified in pre- or mature adipocytes (Won, Y. W. et al. Nat Mater 13, 1157-1164, (2014)). Fractionated proteins isolated from adipocytes were incubated with the ATS magnetic beads and the protein captured by ATS was identified by western blotting. […] Prohibitin is observed in several intracellular locations at varying expression levels depending on the degree of adipogenesis (Wang, P. et al. Cell Mol Life Sci 61, 2405-2417, (2004); Patel, N. et al. Proceedings of the National Academy of Sciences of the United States of America 107, 2503-2508, (2010)). The degree and location of prohibitin expression in pre- or mature adipocytes was determined. […] Confocal microscopy also verified the prohibitin expression on the cell membrane of mature adipocytes (C of FIG. 2). High-level prohibitin expression on the cell membrane of mature adipocytes is important to the ATS/prohibitin interaction.

3T3-L1 mature adipocytes = assay: Lipid accumulation in 3T3-L1 adipocytes by Oil Red O staining, with cell count; type: cell-based, mouse; details: Oil Red O, microscopy, peptides at 100 μM, three times per week for three weeks (Day 21), vs non-treated control
Description: FIG. 3: Representative photomicrographs showing Oil Red O-stained mature adipocytes treated with peptides at 100 μM (Day 21). H: Quantitative analysis of the lipids accumulated in the adipocytes (Day 21). Control absorbance: 0.526 (Red line). I: Relative cell counts on day 21.
The effects of the minimal short peptides in blocking lipid accumulation in adipocytes were compared with their parent full-length peptide. After generating five different 3 amino acid fragments (KGG, GGR, GRA, RAK, and AKD) from the original ATS peptide (KGGRAKD (SEQ ID NO:1)), each peptide was administered to 3T3-L1 pre-adipocytes in five varying concentrations. Peptides were treated to the adipocytes three times per week for three weeks. Oil Red O staining was utilized to assess the lipid contents in mature adipocytes in culture. The morphological characteristics of 3T3-L1 mature adipocytes were observed by microscopy. […] Furthermore, the lipids were quantitatively analyzed.
The number of viable cells is counted prior to Oil Red O staining using Cell Counting Kit 8 (Dojindo). This cell viability study allows one to determine potential toxicities of the peptides and compensate for cell number variation-causing artifacts. Oil Red O is dissolved in isopropanol at […] to create a working solution. 12 ml of Oil Red O working solution is mixed with 8 ml dH2O and incubated for 10 minutes. This solution is then filtered using a 0.2 μm syringe filter. Adipocytes seeded on 96-well plates are washed with PBS twice. 10% formaldehyde is added for initial fixation and the plates are incubated for at least 30 minutes. The formaldehyde is removed and the cells are once again washed twice, this time with dH2O. 60% isopropanol is added to each well. The plates are incubated for 5 minutes. The isopropanol is removed from the wells and replaced with Oil Red O working solution. The plates are incubated for an additional 10 minutes. The Oil Red O solution is removed and washed four times with dH2O. Lastly, digital micrographs of the lipid droplets in adipocytes are taken using a light microscope. After the staining protocol, all plates are washed three times with 60% isopropanol. Each time, 5 minutes of gentle rocking was used. The Oil Red O is extracted with 100% isopropanol with gentle rocking for 5 minutes. 200 μl isopropanol per well is used as a background to measure absorbance at 492 nm using a BioTek microplate reader.

ACTGSTQHQGGGSESPLKRQG
Cell number at the end point (toxicity) (3T3-L1 fibroblast): almost the same across the treatment groups

KGGRAKD
Fructose concentration in adipocytes vs control group (3T3-L1 cells): significantly lower than the control group
Binding of ATS to prohibitin (prohibitin): specifically binds to prohibitin
Number and size of lipid droplets in adipocytes (3T3-L1 mature adipocytes): smaller than those in the non-treated control
